The values below come from patent US20070060566A1, “Benzazepine derivatives as histamine h3 antagonists” (priority 2003, published 2007).

Each structure is given as a SMILES string. Bounds are passed on as bounds.

T1 sequence (Q9Y5N1 whole entry): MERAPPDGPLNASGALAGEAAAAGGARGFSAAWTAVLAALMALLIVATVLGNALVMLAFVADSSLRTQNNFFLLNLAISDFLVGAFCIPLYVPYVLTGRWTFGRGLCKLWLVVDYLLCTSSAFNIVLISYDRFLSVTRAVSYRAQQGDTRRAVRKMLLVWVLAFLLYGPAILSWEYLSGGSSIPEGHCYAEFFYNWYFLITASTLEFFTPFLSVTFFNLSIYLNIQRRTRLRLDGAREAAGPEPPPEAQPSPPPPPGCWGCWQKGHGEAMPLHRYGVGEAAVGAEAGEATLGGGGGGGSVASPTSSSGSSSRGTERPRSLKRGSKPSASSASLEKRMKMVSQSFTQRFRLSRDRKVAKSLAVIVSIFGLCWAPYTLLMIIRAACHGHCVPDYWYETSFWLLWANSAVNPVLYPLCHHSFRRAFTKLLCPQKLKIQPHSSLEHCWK

This assay has as its target T1, human histamine H3 receptor (Homo sapiens, UniProt Q9Y5N1).
T1 construct: expressed in transfected cells; host or cells: CHO K1 cells carrying the pSwitch regulatory plasmid, transfected with pGeneH3, induced with mifepristone; clone 3H3
The assay can be described thus: Histamine H3 functional antagonist assay ([35S]GTPγS SPA on membranes). The following applies: membranes of CHO K1 cells expressing human histamine H3; histamine 0.3 μM; read-out: antagonism (pKb) (converted). It counts as biochemical. From the text: A membrane preparation containing histamine H3 receptors may be prepared in accordance with the following procedures:
(i) Generation of Histamine H3 Cell Line
DNA encoding the human histamine H3 gene (Huvar, A. et al. (1999) Mol. Pharmacol. 55(6), 1101-1107) was cloned into a holding vector, pCDNA3.1 TOPO (InVitrogen) and its cDNA was isolated from this vector by restriction digestion of plasmid DNA with the enzymes BamH1 and Not-1 and ligated into the inducible expression vector pGene (InVitrogen) digested with the same enzymes. The GeneSwitch™ system (a system where in transgene expression is switched off in the absence of an inducer and switched on in the presence of an inducer) was performed as described in U.S. Pat. Nos. 5,364,791; 5,874,534; and 5,935,934. Ligated DNA was transformed into competent DH5α E. coli host bacterial cells and plated onto Luria Broth (LB) agar containing Zeocin™ (an antibiotic which allows the selection of cells expressing the sh ble gene which is present on pGene and pSwitch) at 50 μg ml^−1. Colonies containing the re-ligated plasmid were identified by restriction analysis. DNA for transfection into mammalian cells was prepared from 250 ml cultures of the host bacterium containing the pGeneH3 plasmid and isolated using a DNA preparation kit (Qiagen Midi-Prep) as per manufacturers guidelines (Qiagen).
CHO K1 cells previously transfected with the pSwitch regulatory plasmid (InVitrogen) were seeded at 2×10e6 cells per T75 flask in Complete Medium, containing Hams F12 (GIBCOBRL, Life Technologies) medium supplemented with 10% v/v dialysed foetal bovine serum, L-glutamine, and hygromycin (100 μg ml^−1), 24 hours prior to use. Plasmid DNA was transfected into the cells using Lipofectamine plus according to the manufacturers guidelines (InVitrogen). 48 hours post transfection cells were placed into complete medium supplemented with 500 μg ml^−1 Zeocin™.
10-14 days post selection 10 nM Mifepristone (InVitrogen), was added to the culture medium to induce the expression of the receptor. 18 hours post induction cells were detached from the flask using ethylenediamine tetra-acetic acid (EDTA; 1:5000; InVitrogen), following several washes with phosphate buffered saline pH 7.4 and resuspended in Sorting Medium containing Minimum Essential Medium (MEM), without phenol red, and supplemented with Earles salts and 3% Foetal Clone II (Hyclone). Approximately 1×10e7 cells were examined for receptor expression by staining with a rabbit polyclonal antibody, 4a, raised against the N-terminal domain of the histamine H3 receptor, incubated on ice for 60 minutes, followed by two washes in sorting medium. Receptor bound antibody was detected by incubation of the cells for 60 minutes on ice with a goat anti rabbit antibody, conjugated with Alexa 488 fluorescence marker (Molecular Probes). Following two further washes with Sorting Medium, cells were filtered through a 50 μm Filcon™ (BD Biosciences) and then analysed on a FACS Vantage SE Flow Cytometer fitted with an Automatic Cell Deposition Unit. Control cells were non-induced cells treated in a similar manner. Positively stained cells were sorted as single cells into 96-well plates, containing Complete Medium containing 500 μg ml^−1 Zeocin™ and allowed to expand before reanalysis for receptor expression via antibody and ligand binding studies. One clone, 3H3, was selected for membrane preparation.
(ii) Membrane Preparation from Cultured Cells
All steps of the protocol are carried out at 4° C. and with pre-cooled reagents. The cell pellet is resuspended in 10 volumes of buffer A2 containing 50 mM N-2-hydroxyethylpiperazine-N′-2-ethanesulfonic acid (HEPES) (pH 7.40) supplemented with 10e-4M leupeptin (acetyl-leucyl-leucyl-arginal; Sigma L2884), 25 μg/ml bacitracin (Sigma B0125), 1 mM ethylenediamine tetra-acetic acid (EDTA), 1 mM phenylmethylsulfonyl fluoride (PMSF) and 2×10e-6M pepstain A (Sigma). […]
For orientation: GTPγS is a poorly hydrolysed GTP analogue; its binding reports G protein activation.
As to `O=C(Nc1ccc2c(c1)CCN(C1CCC1)CC2)c1ccc(-n2cnnn2)cc1` [Example 33, N-(3-Cyclobutyl-2,3,4,5-tetrahydro-1H-3-benzazepin-7-yl)-4-(1H-tetrazol-1-yl)benzamide], the Kb is under 0.316 nM.
In the case of `N#Cc1ccc(-c2ccc(C(=O)Nc3ccc4c(c3)CCN(C3CCC3)CC4)cn2)cc1` [Example 98, 6-(4-Cyanophenyl)-N-(3-cyclobutyl-2,3,4,5-tetrahydro-1H-3-benzazepin-7-yl)-3-pyridinecarboxamide] it was under 0.316 nM; in that of `O=C(Nc1ccc2c(c1)CCN(C1CCC1)CC2)c1ccc(N2CCNC2=O)cc1` [Example 88, N-(3-Cyclobutyl-2,3,4,5-tetrahydro-1H-3-benzazepin-7-yl)-4-(2-oxo-1-imidazolidinyl)benzamide], under 0.316 nM.
As to `N#Cc1ccc(-c2ccc(C(=O)Nc3ccc4c(c3)CCN(C3CCC3)CC4)cc2)cn1` [Example 34, 4-(6-Cyano-3-pyridinyl)-N-(3-cyclobutyl-2,3,4,5-tetrahydro-1H-3-benzazepin-7-yl)benzamide], the Kb is under 0.316 nM.
The value for `O=C(Nc1ccc2c(c1)CCN(C1CCC1)CC2)c1cnc(N2CCCCC2)cn1` [Example 113, N-(3-Cyclobutyl-2,3,4,5-tetrahydro-1H-3-benzazepin-7-yl)-5-(1-piperidinyl)-2-pyrazinecarboxamide] was under 0.316 nM.
In the case of `Cc1ccc(C(=O)Nc2ccc3c(c2)CCN(C2CCC2)CC3)cn1` [Example 37, N-(3-Cyclobutyl-2,3,4,5-tetrahydro-1H-3-benzazepin-7-yl)-6-methylnicotinamide] it was under 0.316 nM; in that of `N#Cc1ccc(C(=O)Nc2ccc3c(c2)CCN(C2CCC2)CC3)cc1` [Example 2, 4-Cyano-N-(3-cyclobutyl-2,3,4,5-tetrahydro-1H-3-benzazepin-7-yl)benzamide], under 0.316 nM; in that of `O=C(Nc1ccc2c(c1)CCN(C1CCC1)CC2)N1CCCc2ccccc21` [Example 148, N-(3-Cyclobutyl-2,3,4,5-tetrahydro-1H-3-benzazepin-7-yl)-3,4-dihydro-1(2H)-quinolinecarboxamide], under 0.316 nM.
The value for `O=C(Nc1ccc2c(c1)CCN(C1CCC1)CC2)c1ccc(N2CCOCC2)nc1` [Example 44, N-(3-Cyclobutyl-2,3,4,5-tetrahydro-1H-3-benzazepin-7-yl)-6-(4-morpholinyl)-3-pyridinecarboxamide] was under 0.316 nM; that for `O=C(Nc1ccc2c(c1)CCN(C1CCC1)CC2)c1ccc(-c2ccccn2)cc1` [Example 8, N-(3-Cyclobutyl-2,3,4,5-tetrahydro-1H-3-benzazepin-7-yl)-4-(2-pyridinyl)benzamide] was under 0.316 nM; that for `O=C(Nc1ccc2c(c1)CCN(C1CCC1)CC2)c1ccc(-c2cncnc2)cc1` [Example 29, N-(3-Cyclobutyl-2,3,4,5-tetrahydro-1H-3-benzazepin-7-yl)-4-(5-pyrimidinyl)benzamide] was under 0.316 nM.
